Source: PMC8949375, “Design, Green Synthesis and Tailoring of Vitamin E TPGS Augmented Niosomal Nano-Carrier of Pyrazolopyrimidines as Potential Anti-Liver and Breast Cancer Agents with Accentuated Oral Bioavailability” (Pharmaceuticals, 2022)
Like-named read-outs stand apart in the source and are kept apart here.

Assays:
[1] = tested on: VEGFR-2 protein expression level in MCF-7 cell line; assay: Human VEGF receptor-2 ELISA in MCF-7; assay type: cell-based; design: concentration or dose not given beside the values; details: MCF-7, ELISA, compared to control
Protocol: (§1) Total protein was assayed using the method described by Bradford. The Human VEGF receptor-2 ELISA Kit (ab213476), (96 tests) was purchased from (abcam®, Waltham, MA, USA). The kit is a sandwich enzyme immunoassay for the in vitro quantitative measurement of human VEGFR-2 in tissue homogenates, cell lysates and other biological fluids according to the manufacturer’s instructions.

A-549 cell line = assay: MTT cytotoxicity assay, A-549; assay type: cell-based; details: Homo sapiens, A549, read-out: IC50 A-549 Lung Carcinoma
Excerpt: (§2) • HepG2 [HEPG2] (ATCC® HB-8065™, Manassas, VA, USA) epithelial hepatocellular carcinoma was derived from the liver tissue of a person (a well-differentiated hepatocellular carcinoma). The human HCC cell line, HEPG-2, was obtained from the American Type Culture Collection and used to evaluate the effects of the following drugs. MCF-7(ATCC® HTB-22™, Manassas, VA, USA) breast cancer cells were derived from mammary gland or breast at a metastatic site. The human MCF-7 cell line, MCF-7, was obtained from the American Type Culture Collection and used to evaluate the effects of the following drugs. • Caco 2 [Caco2] (ATCC® HTB 37™, Manassas, VA, USA) epithelial colorectal adenocarcinoma was derived from the colon at a metastatic site. The human Caco-2 cell line, Caco-2, was obtained from the American Type Culture Collection and used to evaluate the effects of the following drugs. A549 (ATCC® CCL-185™, Manassas, VA, USA), epithelial-like lung carcinoma, was derived from lung tissue at a metastatic site. The human A549 cell line, A549, was obtained from the American Type Culture Collection and used to evaluate the effects of the following drugs.
(§3) HEPG2, A549, MCF-7 and Caco-2 cells were maintained in a monolayer culture in a T-25 flask at 5% CO2 and 37 °C in DMEM (Lonza, Verviers, Belgium) and supplemented with 10% (v/v) FBS (Sigma-Aldrich Co. LLC., Burlington, VT, USA). Penicillin/streptomycin (Gibco®, Grand Island, NY, USA) was applied at 100 units/mL and 100 µg/mL, respectively.
(§4) Growth inhibition was determined by classic MTT assay. In brief, HEPG2, A549, MCF-7 and Caco-2 cells were added to a cell culture MTT assay plate at a concentration of 5 × 10^3 cells/well in 1640 medium and cultured overnight. The different treatments were added on day 1 according to the calculated doses except on the control well and standard, then incubated for 24 h. Measurement was achieved using a microplate reader (Model 550, Bio-Rad, Hercules, CA, USA).

[2] = tested on: HepG2, MCF-7, A-549 and CaCo-2 cell lines; assay: MTT cytotoxicity assay, summary over all tested cell lines; assay type: cell-based, human; details: Homo sapiens; range over compounds and cell lines; read-out: IC50 values versus all tested cell lines (collective range)
Excerpt: as §2, §3, §4

MCF-7 cell line = assay: MTT cytotoxicity assay, MCF-7; assay type: cell-based; details: Homo sapiens, MCF7, read-out: IC50 MCF-7 Breast Cancer
Excerpt: (§5) The human HCC cell line, HEPG-2, was obtained from the American Type Culture Collection and used to evaluate the effects of the following drugs. MCF-7(ATCC® HTB-22TM, Manassas, VA, USA) breast cancer cells were derived from mammary gland or breast at a metastatic site. […] The human Caco-2 cell line, Caco-2, was obtained from the American Type Culture Collection and used to evaluate the effects of the following drugs. […], Manassas, VA, USA), epithelial-like lung carcinoma, was derived from lung tissue at a metastatic site. The human A549 cell line, A549, was obtained from the American Type Culture Collection and used to evaluate the effects of the following drugs. […] LLC., Burlington, VT, USA). Penicillin/streptomycin (Gibco®, Grand Island, NY, USA) was applied at 100 units/mL and 100 μg/mL, respectively. Growth inhibition was determined by classic MTT assay. In brief, HEPG2, A549, MCF-7 and Caco-2 cells were added to a cell culture MTT assay plate at a concentration of 5 × 10^3 cells/well in 1640 medium and cultured overnight. The different treatments were added on day 1 according to the calculated doses except on the control well and standard, then incubated for 24 h.

[3] = tested on: VEGFR-2 protein expression level in HepG2 cell line; assay: Human VEGF receptor-2 ELISA in HepG2; assay type: cell-based; design: concentration or dose not given beside the values; details: compared to control
Protocol: as §1

CaCo-2 cell line = assay: MTT cytotoxicity assay, CaCo-2; assay type: cell-based; details: Homo sapiens, read-out: IC50 CaCo-2 Colon Cancer
Excerpt: as §2, §3, §4

[4] = tested on: VEGF protein expression level in MCF-7 cell line; assay: VEGF ELISA in MCF-7 cell culture supernatant; assay type: cell-based, human; design: concentration or dose not given beside the values; details: MCF-7, ELISA, compared to control
Protocol: (§6) Total protein was assayed using the method described by Bradford. The VEGF ELISA Assay Kit (VEGF) and ELISA Kit, (#VGF31-[…]) were purchased from (Eagle Biosciences CO., LTD, Amherst, NH, USA). The kit is a sandwich enzyme immunoassay for the in vitro quantitative determination of VEGF concentrations in cell culture supernates, serum and plasma according to the manufacturer's instructions.

HepG2 cell line = assay: MTT cytotoxicity assay, HepG2; assay type: cell-based; details: Homo sapiens
Excerpt: as §5

[5] = tested on: VEGF protein expression level in HepG2 cell line; assay: VEGF ELISA in HepG2 cell culture supernatant; assay type: cell-based, human; design: concentration or dose not given beside the values; details: compared to control
Protocol: as §6

[6] = tested on: VEGF gene expression level in HepG2 cell line; assay: Real-time PCR of VEGF gene expression, HepG2; assay type: cell-based, human; details: HepG2, 3 days of treatment, compared to control, in words
Protocol: RT-PCR was applied to evaluate the VEGF gene expression level. Briefly, total RNA was extracted, and the extracted total RNA concentration was determined using a NanoDrop 2000 spectrophotometer (Thermo Fisher, Waltham, MA, USA). To determine the relative expression levels, the 2^−ΔΔCT method was used. NCBI/Primer Blast was used to define the primer sequences. The experiments were performed in quadruplicate. The primer sequences of VEGF and β-actin genes are listed below: […]

[7] = read-out: IC50 HepG2 Livercarcinoma
[8] = TPGS-coated vs uncoated niosomes vs pure compound, read-out: IC50 Hepg2 Liver Carcinoma

melting point	SMILES	VEGFR-2 24 h % Inhibition [1]	VEGFR-2 72 h % Inhibition [1]	IC50 (A-549 cell line)	IC50 [2]	IC50 (MCF-7 cell line)	VEGFR-2 24 h % Inhibition [3]	VEGFR-2 72 h % Inhibition [3]	IC50 (CaCo-2 cell line)	VEGF 24 h % Inhibition [4]	VEGF 72 h % Inhibition [4]	IC50 (HepG2 cell line; [7])	VEGF 24 h % Inhibition [5]	VEGF 72 h % Inhibition [5]	VEGF gene expression level [6]	IC50 (HepG2 cell line; [8])
228 to 230 °C	Cc1ccc(N=Nc2c(N)nn3c(C)c(N=Nc4cccc([N+](=O)[O-])c4)c(=O)[nH]c23)cc1 [Compound 4b, 2-Amino-7-methyl-6-((3-nitrophenyl)diazenyl)-3-(4-tolyldiazenyl)pyrazolo[1,5-a]pyrimidin-5(4H)-one]	50%	50%	14 µM	6 to 50 µM	25 µM	42%	38.5%	15.4 µM	40%	50%	12.5 µM	46%	41.7%	great inhibition	
264 to 266 °C	Cc1ccc(N=Nc2c(N)nn3c(N)c(N=Nc4ccc(S(=O)(=O)N=C(N)N)cc4)c(N)nc23)cc1 [Compound 7, N-(Diaminomethylene)-4-((2,5,7-Triamino-3-(4-Tolyldiazenyl)Pyrazolo[1,5-a]Pyrimidin-6-yl)Diazenyl)Benzenesulfonamide]	60%	62.5%	12 µM	6 to 50 µM	12 µM	69.7%	72.3%	6 µM	50%	62.5%	6 µM	51.5%	70.3%	best VEGF gene expression level downregulation	6 µM
268 to 270 °C	Cc1ccc(N=Nc2c(N)nn3c(N)c(N=Nc4ccc(S(=O)(=O)N=C(N)N)cc4)c(O)nc23)cc1 [Compound 2a, 4-((2,7-Diamino-5-hydroxy-3-(4-tolyldiazenyl)pyrazolo[1,5-a]pyrimidin-6-yl)diazenyl)-N-(diaminomethylene)benzenesulfonamide]	50%	50%	10 µM	6 to 50 µM	20 µM	47.4%	38.5%	12.5 µM	40%	50%	6.2 µM	38.5%	33.3%	great inhibition	6.5 µM
	Cc1ccc(N=Nc2c(N)n[nH]c2N)cc1 [Compound 1, 4-(p-tolyldiazenyl)-1H-pyrazole-3,5-diamine]	33.3%	50%	15.1 µM	6 to 50 µM	50 µM	52.6%	38.5%	18.2 µM	20%	50%	20 µM	23%	33.3%		
